{"source": "patent US5656662A", "about": "“Synthesis of optically pure 4-alkenyl- or 4-alkanyl-2-hydroxytetronic acids” (The Ohio State University Research Foundation, priority 1995, dated 1997)", "type_in_all_cases": "cell-based", "key": {"IL-1β": {"tested_on": "IL-1β", "assay": "IL-1β secretion from purified human monocytes", "set-up": "key to EFFECT on IL1β: NE: No effect; INHIB: Inhibition; STIM: Stimulation; IC40: 40% Inhibitory Concentration; EC50: 50% Effective Concentration; TC: Tolerated Concentration; IA: Interferes with Assay", "protocol": "This assay determines the effect of test compounds on the secretion of IL-1β from purified human monocytes.\n(§1) Compounds are tested for their ability to downregulate the production of IL-1β in activated monocytes, or upregulate secretion of IL-1β in unstimulated monocytes. Test compounds are incubated for sixteen hours with purified human monocytes at four dilutions over a range of three log10 concentrations. Where appropriate, lipopolysaccharide (LPS) is used to stimulate the monocytes.\n(§2) The level of IL-1β in the resultant supernatants is quantitated in a solid phase Enzyme-linked Immunoassay (EIA) performed in a 96 well format. IL-1β present in the samples is captured by a specific monoclonal antibody immobilized on the well, and probed with an anti-IL-1β polyclonal antibody conjugated to horseradish peroxidase, followed by an appropriate substrate. The levels of IL-1β are determined by interpolation of the resultant color change in the substrate from a standard curve. All supernatants are tested in duplicate with controls and standards.\nas §1, with “This assay determines the effect of test compounds on the secretion of IL-1β from purified human monocytes. Compounds” for “Compounds”"}, "GM-CSF": {"tested_on": "GM-CSF", "assay": "GM-CSF expression from purified human monocytes", "set-up": "key: NE: No effect; INHIB: Inhibition; STIM: Stimulation; IC40: 40% Inhibitory Concentration; EC50: 50% Effective Concentration; TC: Tolerated Concentration; IA: Interferes with Assay", "protocol": "as §1, with “This assay determines the effect of test compounds on the expression of GM-CSF from purified human monocytes. Compounds” for “Compounds”, “GM-CSF” for “IL-1β”\nas §2, with “level of GM-CSF in the” for “level of IL-1β in the”, “well format. GM-CSF present in” for “well format. IL-1β present in”, “with an anti-GM-CSF polyclonal antibody” for “with an anti-IL-1β polyclonal antibody”, “levels of GM- CSF are determined” for “levels of IL-1β are determined”"}, "MTS": {"assay": "MTS", "conditions": "human, monocytes; read-out: TC (Tolerated Concentration), MTS"}}, "data": [{"smiles": "CCCCCCCCCCCCCC/C=C\\CC[C@@H]1OC(=O)C(O)=C1O", "note": "[(S)-3,4-Dihydroxy-5-[(Z)-3-octadecenyl]-2(5H)-furanone]", "values": [{"measurement": "IC40", "setting": "IL-1β; Homo sapiens, Monocyte, 16 h, STIMULATED, INHIB, 40% Inhibitory Concentration, read-out: IC40, IL1β", "result": 50, "unit": "µM"}, {"measurement": "EFFECT on IL1β", "setting": "IL-1β; STIMULATED", "result": "INHIB"}, {"measurement": "EFFECT on IL1β", "setting": "IL-1β; UNSTIMULATED", "result": "NE"}, {"measurement": "EFFECT on GMCSF", "setting": "GM-CSF; STIMULATED", "result": "NE"}, {"measurement": "EFFECT on GMCSF", "setting": "GM-CSF; UNSTIMULATED", "result": "NE"}, {"measurement": "MNTC", "setting": "MTS", "result": 50, "unit": "µM"}]}]}
